In patent US10130611B2, “Use of benzo-heterocycle derivatives for preventing and treating cancer or for inhibiting cancer metastasis” (MEDICINAL BIOCONVERGENCE RESEARCH CENTER, priority 2009, dated 2018):
Entries after “also recorded” stand apart in the source; their conditions may differ.

Tests used:
A549 cells = experiment: Western blotting of 67LR and 37LRP levels in A549 cells; format: cell-based, human; details: KL1 in different amounts
Experimental: As a control, an OD level of cells treated with DMSO was measured. FIG. 32 is a photograph showing cell growth in wells containing yeast cells having indicated interaction pairs in the presence or absence of CAND-KL1. In FIG. 33, in 293 cells, through co-immunoprecipitation, the KL1-dose-dependent effect on the interaction between KRS and 67LR was tested. The cells were treated with KL1 for 3 hours, 67LR was immunoprecipitated, and co-precipitation of KRS was determined by western blotting. In FIG. 34, in the presence of KL1 in indicated levels, a laminin receptor labeled with radioisotope was mixed with GST-KRS (1 μg). GST-KRS was precipitated with glutathione-Sepharose beads, and co-precipitated laminin receptor was detected with autoradiography. In FIG. 35, in A549 cells, the effect of KL1 on the intracellular level of 67LR and 37LRP was tested with western blotting. […] GST-KRS was immobilized on a CM5 Sensor Chip, and the binding was measured by a resonance unit (RU) at indicated concentrations (indicated by different colors). […]
From among the compounds, the inventors also examined whether the compound represented by Formula 15 (indicated by CAND-KL1, and KL1) can inhibit the intracellular interaction between KRS and 67LR. […] Then, 67LR was immunoprecipitated with its antibody, and co-immunoprecipitation of KRS was determined. […]

[1] = system: Mouse mammary carcinoma 4T-1 cells; experiment: In vivo cancer metastasis experiment; set-up: species or system Balb/c mice; details: mice, 30 mg/kg once a day for 3 weeks
Experimental: On MMP2 activity (FIG. 37) and cell migration (FIGS. 38 and 39), KL1-dose-dependent effect was measured. For the test on the cell migration, the cells were treated with KL1 for 8 hours. In FIG. 40, in order to see the effect of KL1 on protein synthesis of cells, A549 cells were treated with KL1 at indicated concentrations, and starved in methionine-free medium. Then, [^35S] methionine was added thereto for 2 hours. Then, the cells were incubated in complete medium for 4 hours, and the level of added methionine was measured by a scintillation counter. In FIG. 41, KL1-dose-dependent cytotoxicity was measured by using A549 cells. In FIG. 42, the effect of KL1 on cancer metastasis was measured according to the method as described above. In each group, 6 mice were included, and KL1 was abdominally injected for 3 weeks, in a dose of 30 mg/kg once a day. Then, the mice were sacrificed. The metastasized tumor nodules over 1 mm in diameter were counted, and their average was calculated (left). […]
Mouse mammary carcinoma 4T-1 cells were transfected with si-KRS, si-DRS or si-control, and incubated for 24 hours. […] The growth of a tumor was monitored by measuring a tumor size three times per week. The whole body weights were also simultaneously measured. […] The number and size of metastatic tumor nodules in lungs were measured, and tumor nodules of larger than 1 mm in diameter were separately recorded. […]

## CCC(C(=O)O)n1/c(=N/C(=O)c2ccc(C)cc2)sc2ccccc21 (stereo not shown) [Compound of formula 15, 2-[2-(4-Methyl-benzoylimino)-benzothiazol-3-yl]-butyric acid]
A549 cells
  cytoplasmic 37LRP level: no effect
  intracellular level of 67LR: decreased by the amount of added KL1
[1]; abdominally injected, lung nodules over 1 mm in diameter
  number of metastasized nodules: significantly reduced
[1]; KL1 treated vs non-treated group, listed as KL1, 30 mg/kg
  primary tumor growth (weight and size): no significant difference in weight and size; also recorded: did not affect
